{
  "source": "paper PMC10755736",
  "about": "“Modulating Liquid–Liquid Phase Separation of Nck Adaptor Protein against Enteropathogenic Escherichia coli Infection” (ACS Central Science, 2023)",
  "key": {"Nck/N-WASP/3pY": {"target": "T1, Nck/N-WASP/3pY (Homo sapiens, UniProt P16333)", "T1 construct": "GST (followed by PreScission/HRV 3C site) (N, cleaved yes); made in house; host or cells: E. coli BL21(DE3)", "assay": "Disruption of Nck/N-WASP/3pY droplets by pY peptides (microscopy)", "format": "biochemical", "conditions": "peptide 12.5, 25, 50, 100 µM; 0, 10, 30 min; Nck 80 μM, N-WASP 15 μM, 3pY 10 μM; confocal", "method": "Next, we explored the intervention of Nck/N-WASP/3pY LLPS using pY peptides (Figure 3a). Three pY-containing peptides extracted from different Tir sequences were synthesized, namely, peptides Y474, Y751, and Y147 (Figure 3b).\nFigure 3 pY peptides disrupt Nck/N-WASP/3pY LLPS. (a) Sequences of synthetic pY peptides. […] Nck: 20 μM; N-WASP: 10 μM; 3pY: 10 μM. Scale bars, 20 μm. (c) Peptide Y474 rapidly decreases the turbidity of the Nck/N-WASP/3pY solution in around 20 min. Nck: 20 μM, N-WASP: 10 μM, 3pY: 10 μM. […] Nck: 20 μM, N-WASP: 10 μM, 3pY: 10 μM. […]\npeptide 0 min 10 min 30 min\nPeptides p1 with different concentrations were added to decrease the droplet formation of the Nck/N-WASP/3pY solution and droplet disassembles were observed under confocal microscopy at different times (0 min, 10 min and 30 min). Nck: 80 μM, N-WASP: 15 μM, 3pY: 10 μM. […]\nFigure S13. […] Peptides Y474 with […]\ndifferent concentrations were added to decrease the droplet formation of the Nck/N-WASP/3pY solution and droplet disassembles were observed under confocal microscopy at different times (0 min, 10 min and 30 min). Nck: 80 μM, N-WASP: 15 μM, 3pY: 10 μM."}, "Nck-SH2": {"tested_on": "Nck-SH2", "assay": "Mass spectrometric analysis of Nck-p1 conjugate", "format": "binding", "method": "(§1) We next identified the residues in Nck-SH2 that are involved in the reaction with p1 by mass spectrometry. […] The Nck–p1 conjugate was digested with trypsin, and peptide fragments were analyzed with an in-line EASY-spray source and nano-LC UltiMate 3000 HPLC system interfaced with an Elite mass spectrometer, operated in the data-dependent acquisition (DDA) mode with one full MS scan at R = 60,000 (m/z = 200) mass followed by HCD MS/MS scans. […] The fragmentation spectral analysis of [EEHIpYXEVAAD(α)] + [HFKVQLK(β)] extracted by pLabel v2.4.3.0 (Figure 5a and Figure S6 in the Supporting Information)[38],[39] confirmed the ligand-directed conjugation of Nck-SH2 protein with p1 peptide. The underlined lysine residue in the β-chain sequence indicated the cross-linked site on the predicted Nck Lys331 residue. Next, we mutated Nck Lys331 to Ala, expressed and purified the Nck-SH2K331A mutant. […]\n(§2) The reaction mixture of Nck and p1 were digested with trypsin. Digested peptides were analyzed with an in-line EASY-spray source and nano-LC UltiMate 3000 high-performance liquid chromatography system (Thermo Fisher, USA) interfaced with an Elite mass spectrometer (Thermo Fisher, USA). The eluted peptides were detected by the Elite mass spectrometer, which was operated in data-dependent mode with one full MS scan at R = 60,000 (m/z = 200) mass, followed by MS/MS scans. […]"}, "Nck-SH2K331A": {"tested_on": "Nck-SH2K331A", "assay": "Covalent reaction of p1 with Nck-SH2 K331A mutant", "format": "binding", "conditions": "PBS, 37 °C, 1 min or 10 min; SDS-PAGE", "method": "as §1, §2"}},
  "note": "Entries after “also recorded” stand apart in the source; their conditions may differ. Non-standard residues stand in square brackets, D forms with d. Residues, ends and D or L forms follow the SMILES beside them. *: point of attachment. Biotin = O=C1N[C@H]2[C@H](CS[C@H]2CCCCC(=O)*)N1; Benzoyl(4-SO2F) = O=C(c1ccc(S(=O)(=O)F)cc1)*; pY = N[C@@H](Cc1ccc(OP(=O)(O)O)cc1)C(=O)O; Dap = NC[C@H](N)C(=O)O",
  "data": [
    {"smiles": "CC[C@H](C)[C@H](NC(=O)[C@H](Cc1c[nH]cn1)NC(=O)[C@H](CCC(=O)O)NC(=O)[C@H](CCC(=O)O)NC(=O)CCCC[C@@H]1SC[C@@H]2NC(=O)N[C@@H]21)C(=O)N[C@@H](Cc1ccc(OP(=O)(O)O)cc1)C(=O)N[C@@H](CNC(=O)c1ccc(S(=O)(=O)F)cc1)C(=O)N[C@@H](CCC(=O)O)C(=O)N[C@H](C(=O)N[C@@H](C)C(=O)N[C@@H](C)C(=O)N[C@@H](CC(=O)O)C(N)=O)C(C)C", "note": "[p1] (Biotin-EEHI[pY][Dap](Benzoyl(4-SO2F))EVAAD-NH2; N-terminus and C-terminus assumed)", "values": [
      {"measurement": "reversal of Nck/N-WASP/3pY phase separation (droplet disassembly)", "setting": "Nck/N-WASP/3pY", "value": "reverses the phase separation; also recorded: disintegrate phase-separated Nck droplets"},
      {"measurement": "conjugation stoichiometry by LC-MS", "setting": "Nck-SH2; Nck and Nck-p1 conjugate", "value": "only one p1 was conjugated with Nck"},
      {"measurement": "reaction site on Nck-SH2", "setting": "Nck-SH2; trypsin digest, MS/MS, K331A mutation", "value": "Lys331"},
      {"measurement": "reactivity with Nck-SH2 K331A", "setting": "Nck-SH2K331A", "value": "did not show noticeable reactivity; also recorded: abolished the covalent reaction"}
    ]}
  ]
}
